In ChEMBL document CHEMBL3232858, “Antiangiogenic activity of hypoxylonol C” (J Nat Prod, 2014):
Active and inactive are the calls of the source.

How the values were obtained:
Details in all cases: Homo sapiens
HUVEC [1] = test: Antiangiogenic activity in HUVEC assessed as inhibition of VEGF-induced tube formation at 1 to 20 uM after 11 days; format: functional, cell-based
HUVEC [2] = test: Antiangiogenic activity in HUVEC assessed as inhibition of VEGF-induced cell migration after 22 hrs
HUVEC [3] = test: Antiangiogenic activity in HUVEC assessed as reduction of VEGF-induced integrins alpha3 and beta1 mRNA level at 20 uM after 24 hrs by RT-PCR analysis; format: functional, cell-based
HUVEC [4] = test: Antiangiogenic activity in HUVEC assessed as reduction of VEGF-induced cyclins A2 and B1 mRNA level at 20 uM after 24 hrs by RT-PCR analysis; format: functional, cell-based
HUVEC [5] = test: Antiangiogenic activity in HUVEC assessed as inhibition of VEGF-induced tube formation after 11 days; format: functional, cell-based
HUVEC [6] = test: Antiangiogenic activity in HUVEC assessed as reduction of VEGF-induced CDK1 mRNA level at 20 uM after 24 hrs by RT-PCR analysis; format: functional, cell-based
HUVEC [7] = test: Antiangiogenic activity in HUVEC assessed as reduction of VEGF-induced vascular endothelial cadherin mRNA level at 20 uM after 24 hrs by RT-PCR analysis; format: functional, cell-based
HUVEC [8] = test: Antiangiogenic activity in HUVEC assessed as inhibition of VEGF-induced cell migration at 1 to 20 uM after 22 hrs
HUVEC [9] = test: Antiangiogenic activity in HUVEC assessed as reduction of VEGF-induced tube length at 1 to 20 uM after 11 days; format: functional, cell-based

O=C1C[C@H]2C(=C3c4c2ccc(O)c4[C@@H](O)C[C@@H]3O)c2cccc(O)c21
active: inhibition (HUVEC [1]) | inhibition (HUVEC [2]) Dose-dependent effect | Activity (HUVEC [3]) | Activity (HUVEC [4]) | inhibition (HUVEC [5]) Dose-dependent effect | Activity (HUVEC [6]) | Activity (HUVEC [7]) | inhibition (HUVEC [8]) | inhibition (HUVEC [9])
